Assays:
[1] = tested on: brain tissue; conditions: rat, aqueous 20 mM/l, parenteral
[2] = patient undergoing continuous cyclic peritoneal dialysis; severe recurrent metabolic alkalemia secondary to it; cited from earlier work

SMILES	effect on brain tissue [1]	outcome with continued administration (coma, cerebral edema, death) [1]	adverse effect of inclusion in routine dialysis fluids [2]
C[C@@H](O)C(=O)O [d-lactate]	swelling of brain tissue is observed	coma develops, the cerebral edema worsens and death ensues	–
CC(O)C(=O)O (racemic) [d,l-lactate]	–	–	encephalopathy
C[C@H](O)C(=O)O [l-lactate]	–	does not cause coma or death	–

— USRE38604E1, “Fluid therapy with L-lactate and/or pyruvate anions” (BTG International Limited, priority 1984, dated 2004)
